Assay results published in patent publication US11071730B2, “Substituted 6-azabenzimidazole compounds” (Gilead Sciences, Inc., priority 2018, dated 2021).

biological target: human HPK1 (MAP4K1) (Homo sapiens (Human), UniProt Q92918); experiment: HPK1 IC50 Assay (TR-FRET biochemical kinase assay, STK S1 peptide substrate); settings: recombinant human HPK1 kinase domain 0.15 nM, 10 μM ATP, 1 μM STK S1 peptide; geometric mean
Protocol: The enzymatic activity of human HPK1 (MAP4K1) was monitored in a biochemical assay in the presence or absence of compounds and using a synthetic peptide substrate. An increase in phosphorylation of the peptide by HPK1 was indicative of its kinase activity.
Recombinant HPK1 kinase domain produced via baculovirus infection of insect cells was obtained from Proteros (Proteros Biostructures #PR-0322) and was pre-activated in the presence of 2 mM ATP (Sigma-Aldrich, cat #GE27-2056-01) and 2 mM magnesium chloride for 16 hours at 4° C. The protein reaction mixture was then loaded to a desalting column (Thermo Fisher Scientific, Cat #89889) to remove excess ATP. HPK1 was eluted with buffer containing 20 mM Tris (2-Amino-2-(hydroxymethyl)propane-1,3-diol) pH 8.0, 150 mM NaCl, 2 mM dithiothreitol and 5% glycerol, and was frozen at −80° C. for later use.
Ten nanoliters of test compounds dissolved in DMSO at various concentrations were dispensed into a 384-well ProxiPlate (PerkinElmer #6008289). Five microliters of a solution of recombinant HPK1 diluted in HPK1 kinase assay buffer (50 mM BES [N,N-Bis(2-hydroxyethyl)-2-aminoethanesulfonic acid], pH 7.0; 10 mM magnesium chloride; 0.01% Triton X-100; 1 mM dithiothreitol; 0.01% bovine serum albumin; 0.1 mM sodium orthovanadate) was added to the compound-containing plate and was incubated for 15 minutes at 25° C. Five microliters of a mixture of ATP (Sigma-Aldrich #A6559) and peptide substrate STK S1 (Cisbio #61ST1BLC) diluted in HPK1 kinase assay buffer was then added to start the reaction. Final concentrations were 0.15 nM for HPK1, 10 μM for ATP, and 1 μM for the STK S1 peptide substrate. The reaction mixture was incubated at 25° C. for 3 hours and was stopped with the addition of 10 μl of an EDTA (Ethylenediaminetetraacetic acid)-containing detection buffer (Cisbio #62SDBRDF) supplemented with Europium cryptate-labeled anti-phospho-serine/threonine antibodies (Cisbio #62ST1PEJ) and XL665-labeled streptavidin (Cisbio #610SAXLG). The mixture was incubated for 16 hours at room temperature and peptide phosphorylation was measured by time-resolved fluorescence energy transfer (665 nm/620 nm) on an Envision plate reader (PerkinElmer).
Data in Table 1 were normalized based on positive (staurosporine) and negative (DMSO) controls. Least squares curve fittings were performed using a four-parameter variable slope nonlinear regression model. IC50 is defined as the concentration of compound required to inhibit 50% of maximum phosphorylation. IC50 values from multiple experiments were averaged by geometric mean and the standard deviation was calculated.

human HPK1 (MAP4K1), sequence (Q92918 17-274): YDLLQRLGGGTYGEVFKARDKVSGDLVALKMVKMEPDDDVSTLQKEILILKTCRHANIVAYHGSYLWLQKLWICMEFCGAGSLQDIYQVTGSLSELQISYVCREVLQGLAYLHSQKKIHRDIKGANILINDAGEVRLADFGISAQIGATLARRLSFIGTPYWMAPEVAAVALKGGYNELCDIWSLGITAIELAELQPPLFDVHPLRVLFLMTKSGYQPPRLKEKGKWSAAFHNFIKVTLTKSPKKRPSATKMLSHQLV

| SMILES | IC50 [nM] |
| --- | --- |
| CC(C)n1cnc2cc(-c3ccc4c(c3)N([C@H]3C[C@@H](N5C[C@H]6CC[C@H]6C5)C3)C(=O)C43CCN(C(=O)C(C)(C)CO)CC3)nc(Nc3ccncc3F)c21 [Example 112] | 0.08 |
| Cc1cnc(Nc2nc(-c3ccc4c(c3)N([C@H]3C[C@@H](N5CCCCC5)C3)C(=O)C4(C)C)cc3ncn(C(C)C)c23)cc1C(=O)NC1(CF)CC1 [Example 195] | 6 |
| CC(C)n1cnc2cc(-c3ccc4c(c3)N([C@H]3C[C@@H](N5CCCCC5)C3)C(=O)C43CCN(C4COC4)CC3)nc(Nc3ccncc3F)c21 [Example 174, 6-(4-((3-fluoropyridin-4-yl)amino)-3-isopropyl-3H-imidazo[4,5-c]pyridin-6-yl)-1′-(oxetan-3-yl)-1-((1s,3s)-3-(piperidin-1-yl)cyclobutyl)spiro[indoline-3,4′-piperidin]-2-one] | 0.5 |
| CCC(=O)N1CCC2(CC1)C(=O)N([C@H]1C[C@@H](N3CCCCC3)C1)c1cc(-c3cc4ncn(CC)c4c(Nc4ccncc4F)n3)ccc12 [Example 168] | 2.6 |
| CC(C)n1cnc2cc(-c3ccc4c(c3)N([C@H]3C[C@@H](N5CCCCC5)C3)C(=O)C43CCN(C(=O)C(C)(C)CO)CC3)nc(Nc3ccnc(F)c3F)c21 [Example 103] | 0.2 |
| Cc1cc(Nc2nc(-c3ccc4c(c3)N([C@H]3C[C@@H](N5CCCCC5)C3)C(=O)C43CCN(C(=O)C4(C)COC4)CC3)cc3ncn(C(C)C)c23)c(F)cn1 [Example 129] | 0.6 |
| CC(C)n1cnc2cc(-c3ccc4c(c3)N([C@H]3C[C@@H](N5CCCCC5)C3)C(=O)C43CCN(C(=O)C4CC4)CC3)nc(Nc3ccncc3F)c21 [Example 143] | 0.3 |
| CC(C)n1cnc2cc(-c3ccc4c(c3)N([C@H]3C[C@@H](N5CCC(C)(C)C5)C3)C(=O)C43CCN(C(=O)C(C)(C)CO)CC3)nc(Nc3ccc(F)nc3F)c21 [Example 164] | 0.08 |
| CNC(=O)c1cc(Nc2nc(-c3ccc4c(c3)N([C@H]3C[C@@H](N5CCCCC5)C3)C(=O)C4(C)C)cc3ncn(C(C)C)c23)ncc1C [Example 194, 2-((6-(3,3-dimethyl-2-oxo-1-((1s,3s)-3-(piperidin-1-yl)cyclobutyl)indolin-6-yl)-3-isopropyl-3H-imidazo[4,5-c]pyridin-4-yl)amino)-N,5-dimethylisonicotinamide] | 9.6 |
| COC1(C(=O)N2CCC3(CC2)C(=O)N([C@H]2C[C@@H](N4CCCCC4)C2)c2cc(-c4cc5ncn(C(C)C)c5c(Nc5ccncc5F)n4)ccc23)CCC1 [Example 107] | 0.3 |

The next lines start with the values.

| IC50 [nM] | SMILES |
| --- | --- |
| 4.5 | COC(C)(C)CN(C)[C@H]1C[C@@H](N2C(=O)C3(CCN(C(C)=O)CC3)c3ccc(-c4cc5ncn(C(C)C)c5c(Nc5ccncc5F)n4)cc32)C1 [Example 179] |
| 0.3 | COCC(C)(C)C(=O)N1CCC2(CC1)C(=O)N([C@H]1C[C@@H](N3CCCCC3)C1)c1cc(-c3cc4ncn(C(C)C)c4c(Nc4ccncc4F)n3)ccc12 [Example 140] |
| 0.9 | CC(C)n1cnc2cc(-c3ccc4c(c3)N([C@H]3C[C@@H](N5CCC[C@@H](C)C5)C3)C(=O)C4(C)C)nc(Nc3ccncc3F)c21 [Example 191] |
| 1.4 | CNC(=O)c1ccc(F)c(Nc2nc(-c3ccc4c(c3)N([C@H]3C[C@@H](N5CCCCC5)C3)C(=O)C4(C)C)cc3ncn(C(C)C)c23)n1 [Example 104] |
| 0.5 | CC(C)n1cnc2cc(-c3ccc4c(c3)N([C@H]3C[C@@H](N5CCC(C)(C)C5)C3)C(=O)C43CCN(C(=O)[C@@H](C)O)CC3)nc(Nc3ccncc3F)c21 [Example 120] |
| 0.7 | CC(=O)N1CCC2(CC1)C(=O)N([C@H]1C[C@@H](N3CCCC[C@@H]3C)C1)c1cc(-c3cc4ncn(C(C)C)c4c(Nc4ccncc4F)n3)ccc12 [Example 184] |
| 0.2 | CC(C)n1cnc2cc(-c3ccc4c(c3)N([C@H]3C[C@@H](N5CCCC6(CC6)C5)C3)C(=O)C43CCN(C(=O)CO)CC3)nc(Nc3ccncc3F)c21 [Example 121] |
| 0.6 | CC(C)n1cnc2cc(-c3ccc4c(c3)N([C@H]3C[C@@H](N5CCC(C)(C)C5)C3)C(=O)C4(C)C)nc(Nc3ccncc3F)c21 [Example 189] |
| 0.4 | CC(C)n1cnc2cc(-c3ccc4c(c3)N([C@H]3C[C@@H](N5CCC(C)(C)C5)C3)C(=O)C43CCN(C(=O)c4cnnn4C)CC3)nc(Nc3ccncc3F)c21 [Example 161] |
| 0.5 | CC(C)C(=O)N1CCC2(CC1)C(=O)N([C@H]1C[C@@H](N3CCCCC3)C1)c1cc(-c3cc4ncn(C(C)C)c4c(Nc4ccncc4F)n3)ccc12 [Example 171] |
| 1.1 | CC(C)n1cnc2cc(-c3ccc4c(c3)N([C@H]3C[C@@H](N5CC[C@@H](C)C5)C3)C(=O)C4(C)C)nc(Nc3ccncc3F)c21 [Example 192] |

same assay, conditions: recombinant human HPK1 kinase domain 0.15 nM, 10 μM ATP, 1 μM STK S1 peptide; geometric mean of multiple experiments

| SMILES | IC50 [nM] |
| --- | --- |
| CC(C)n1cnc2cc(-c3ccc4c(c3)N([C@H]3C[C@@H](N5CC[C@@H](F)C5)C3)C(=O)C43CCN(C4COC4)CC3)nc(Nc3ccncc3F)c21 [Example 42] | 0.6 |
| CC(C)n1cnc2cc(-c3ccc4c(c3)N([C@H]3C[C@@H](N5C[C@@H](C)[C@@H](C)C5)C3)C(=O)C43CCN(C(=O)[C@@H]4CCCO4)CC3)nc(Nc3ccncc3F)c21 [Example 9] | 0.2 |
| CC(C)n1cnc2cc(-c3ccc4c(c3)N([C@H]3C[C@@H](N5CCCCC5)C3)C(=O)C43CCN(C(=O)[C@@H](C)O)CC3)nc(Nc3ccc(F)nc3F)c21 [Example 68] | 0.1 |
| CC[C@H](C)n1cnc2cc(-c3ccc4c(c3)N([C@H]3C[C@@H](N5CCCCC5)C3)C(=O)C43CCN(C(C)=O)CC3)nc(Nc3ccncc3F)c21 [Example 72] | 0.7 |
| CC[C@H](C)n1cnc2cc(-c3ccc4c(c3)N([C@H]3C[C@@H](N5CCC(C)(C)C5)C3)C(=O)C43CCN(C4COC4)CC3)nc(Nc3ccncc3F)c21 [Example 90] | 0.3 |
| CC(=O)N1CCC2(CC1)C(=O)N([C@H]1C[C@@H](N3CCCCC3)C1)c1cc(-c3cc4ncn(C(C)C)c4c(Nc4ncc(F)cc4F)n3)ccc12 [Example 69] | 5.6 |

More lines, now with the values ahead:

| IC50 [nM] | SMILES |
| --- | --- |
| 0.8 | CC(C)n1cnc2cc(-c3ccc4c(c3)N([C@H]3C[C@@H](N5CC6CC6C5)C3)C(=O)C4(C)C)nc(Nc3ccncc3F)c21 (stereo partly drawn) [Example 61] |
| 0.4 | CC(C)n1cnc2cc(-c3ccc4c(c3)N([C@H]3C[C@@H](N5CCC(C)(C)C5)C3)C(=O)C43CCN(C(=O)CC4COC4)CC3)nc(Nc3ccncc3F)c21 [Example 21] |
| 0.1 | CC(C)n1cnc2cc(-c3ccc4c(c3)N([C@H]3C[C@@H](N5CCC(C)(C)C5)C3)C(=O)C43CCN(C(=O)[C@H]4CC[C@@H](C)O4)CC3)nc(Nc3ccncc3F)c21 [Example 20A, 1-((1s,3S)-3-(3,3-dimethylpyrrolidin-1-yl)cyclobutyl)-6-(4-((3-fluoropyridin-4-yl)amino)-3-isopropyl-3H-imidazo[4,5-c]pyridin-6-yl)-1′-((2R,5R)-5-methyltetrahydrofuran-2-carbonyl)spiro[indoline-3,4′-piperidin]-2-one] |
| 0.2 | CC(C)n1cnc2cc(-c3ccc4c(c3)N([C@H]3C[C@@H](N5CCCC(C)(C)C5)C3)C(=O)C4(C)C)nc(Nc3ccc(=O)n(C)c3)c21 [Example 81] |
| 0.2 | CC(C)n1cnc2cc(-c3ccc4c(c3)N([C@H]3C[C@@H](N5CCC(C)(C)C5)C3)C(=O)C43CCN(C(=O)[C@@H]4OCC[C@@H]4C)CC3)nc(Nc3ccncc3F)c21 [Example 19A, 1-((1s,3S)-3-(3,3-dimethylpyrrolidin-1-yl)cyclobutyl)-6-(4-((3-fluoropyridin-4-yl)amino)-3-isopropyl-3H-imidazo[4,5-c]pyridin-6-yl)-1′-((2R,3S)-3-methyltetrahydrofuran-2-carbonyl)spiro[indoline-3,4′-piperidin]-2-one] |
| 13.2 | CC(C)n1cnc2cc(-c3cnc4c(c3)N([C@H]3C[C@@H](N5CCCCC5)C3)C(=O)C4(C)C)nc(Nc3ccncc3F)c21 [Example 51] |
| 0.2 | CC(C)n1cnc2cc(-c3ccc4c(c3)N([C@H]3C[C@@H](N5CCCCC5)C3)C(=O)C43CCN(C(=O)C4(C)CCO4)CC3)nc(Nc3ccncc3F)c21 (stereo partly drawn) [Example 11] |
| 0.5 | CC(C)n1cnc2cc(-c3ccc4c(c3)N([C@H]3C[C@@H](N5CCCCC5)C3)C(=O)C43CCN(C(=O)C4(C)CC4)CC3)nc(Nc3ccncc3F)c21 [Example 27] |
| 0.3 | CC(C)n1cnc2cc(-c3ccc4c(c3)N([C@H]3C[C@@H](N5CCCCC5)C3)C(=O)C4(C)C)nc(Nc3ccnc(F)c3F)c21 [Example 94] |
